Experimental data: US20260199484A1, “PROTAC DEGRADERS OF MLLT1 AND/OR MLLT3” (DARK BLUE THERAPEUTICS LTD, priority 2024, published 2026)

Biological target: T1, MLLT1 (Homo sapiens, UniProt Q03111)
T1 sequence (Q03111 1-559): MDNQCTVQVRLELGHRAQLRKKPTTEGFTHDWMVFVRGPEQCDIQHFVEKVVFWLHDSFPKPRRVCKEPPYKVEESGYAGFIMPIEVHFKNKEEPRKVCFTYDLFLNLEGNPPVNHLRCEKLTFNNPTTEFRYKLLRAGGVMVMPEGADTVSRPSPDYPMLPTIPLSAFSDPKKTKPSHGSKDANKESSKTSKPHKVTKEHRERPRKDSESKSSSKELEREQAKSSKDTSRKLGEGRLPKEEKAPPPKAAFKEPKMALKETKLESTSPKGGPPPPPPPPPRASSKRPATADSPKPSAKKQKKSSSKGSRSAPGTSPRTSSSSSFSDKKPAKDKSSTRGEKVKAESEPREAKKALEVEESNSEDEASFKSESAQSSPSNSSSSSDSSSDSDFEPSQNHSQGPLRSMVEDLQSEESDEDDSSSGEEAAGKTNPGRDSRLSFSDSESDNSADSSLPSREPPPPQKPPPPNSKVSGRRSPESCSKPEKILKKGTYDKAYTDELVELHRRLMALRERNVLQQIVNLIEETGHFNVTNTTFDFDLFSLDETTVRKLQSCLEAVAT
Assay: MLLT1 degradation assay in MV4-11 cells (JESS, 24 h)
Assay type: cell-based
Design: endogenous in cells; host or cells: MV4-11 (ATCC CRL-9591)
Details: vs DMSO control
Experimental: MLLT1 degradation efficacy of compounds was tested in an automated chemiluminescent detection system (JESS, Cat #004-650). MV4-11 (#CRL-9591, ATCC) cells were seeded at a density of 1.2 million cells/well in a non-treated 6-well cell culture plate in 2.4 mL of complete medium (IMDM+10% FBS+1× Penicillin-Streptomycin). 10 mM DMSO stocks were prepared, and cells were treated with three concentrations of test compounds viz. 1000, 100 and 10 nM at a final DMSO concentration of 0.1% and incubated for 24 h at 37° C., 5% CO2. Post incubation, cells were centrifuged, washed with HBSS and lysed in 70 μL of RIPA buffer supplemented with Protease inhibitors (sc-24948; Santa Cruz). Subsequently, protein estimation was done using BCA protein assay kit (23225; Pierce). 4 ug protein lysate (4 uL of 1 ug/uL lysate) was loaded into each well of the JESS cartridge (SM-W001; Bio-techne) and the JESS run was performed using 1:900 dilution of anti-human MLLT1 antibody (14893; Cell signaling technology) and 1:1200 dilution of anti-human GAPDH antibody (2118; Cell signaling technology) with anti-rabbit secondary detection module (DM-001; Bio-Techne). Post run, data were analysed using “Compass for SW” software for chemiluminescent detection. The peak area for each band was used for the calculation of MLLT1 degradation with respect to DMSO control. Data is shown as “MLLT1% degradation”. • Category A: A≥75% degradation • Category B: 50%≤B<75% degradation • Category C: 25%≤C<50% degradation • Category D: D<25% degradation

MLLT1% Degradation @ 0.01 μM | MLLT1% Degradation @ 0.1 μM | MLLT1% Degradation @ 1 μM | Compound
A (Category A: A≥75% degradation) | A (Category A: A≥75% degradation) | A (Category A: A≥75% degradation) | Cc1nn(CCCCCCCC#Cc2cccc3c2CN(C2CCC(=O)NC2=O)C3=O)c2cc(C(=O)Nc3cc4[nH]c([C@H]5CC6(CC6)CN5C)cc4cn3)ccc12 (stereo in doubt) [Example 56, 1-(9-(2-(2,6-dioxopiperidin-3-yl)-1-oxoisoindolin-4-yl)non-8-yn-1-yl)-3-methyl-N-(2-((rel-R)-5-methyl-5-azaspiro[2.4]heptan-6-yl)-1H-pyrrolo[3,2-c]pyridin-6-yl)-1H-indazole-6-carboxamide]
B (Category B: 50%≤B<75% degradation) | A (Category A: A≥75% degradation) | A (Category A: A≥75% degradation) | Cc1nn(CC2CCN(c3cccc4c3CN(C3CCC(=O)NC3=O)C4=O)CC2)c2cc(C(=O)Nc3cc4[nH]c([C@H]5CCCN5C)cc4cn3)ccc12 (stereo in doubt) [Example 108, 1-((1-(2-((rel-R)-2,6-dioxopiperidin-3-yl)-1-oxoisoindolin-4-yl)piperidin-4-yl)methyl)-3-methyl-N-(2-((R)-1-methylpyrrolidin-2-yl)-1H-pyrrolo[3,2-c]pyridin-6-yl)-1H-indazole-6-carboxamide]
D (Category D: D<25% degradation) | D (Category D: D<25% degradation) | B (Category B: 50%≤B<75% degradation) | Cc1nn(CCCCCCCCNc2cccc3c2C(=O)N(C2CCC(=O)NC2=O)C3=O)c2cc(C(=O)Nc3cc4[nH]c([C@@H]5CCCN5C)cc4cn3)ccc12 (stereo partly drawn) [Example 4, 1-(8-{[2-(2,6-dioxopiperidin-3-yl)-1,3-dioxoisoindol-4-yl]amino}octyl)-3-methyl-N-{2-[(2S)-1-methylpyrrolidin-2-yl]-1H-pyrrolo[3,2-c]pyridin-6-yl}indazole-6-carboxamide]
B (Category B: 50%≤B<75% degradation) | B (Category B: 50%≤B<75% degradation) | C (Category C: 25%≤C<50% degradation) | Cc1c2ccc(C(=O)Nc3cc4[nH]c([C@H]5CCCN5C)cc4cn3)cc2nn1CCCCCCCCNc1cccc2c1C(=O)N(C1CCC(=O)NC1=O)C2=O (stereo partly drawn) [Example 5, 2-(8-((2-(2,6-dioxopiperidin-3-yl)-1,3-dioxoisoindolin-4-yl)amino)octyl)-3-methyl-N-(2-((R)-1-methylpyrrolidin-2-yl)-1H-pyrrolo[3,2-c]pyridin-6-yl)-2H-indazole-6-carboxamide]
C (Category C: 25%≤C<50% degradation) | B (Category B: 50%≤B<75% degradation) | A (Category A: A≥75% degradation) | CN1CCC[C@@H]1c1cc2cnc(NC(=O)c3ccc4c(c3)c(N3CCC(CN5CCN(c6cc7c(cc6F)C(=O)N(C6CCC(=O)NC6=O)C7=O)CC5)CC3)nn4C)cc2[nH]1 (stereo partly drawn) [Example 6, 3-[4-({4-[2-(2,6-dioxopiperidin-3-yl)-6-fluoro-1,3-dioxoisoindol-5-yl]piperazin-1-yl}methyl)piperidin-1-yl]-1-methyl-N-{2-[(2R)-1-methylpyrrolidin-2-yl]-1H-pyrrolo[3,2-c]pyridin-6-yl}indazole-5-carboxamide]
D (Category D: D<25% degradation) | C (Category C: 25%≤C<50% degradation) | A (Category A: A≥75% degradation) | Cc1c(OCCCCCCCCn2nc(C)c3ccc(C(=O)Nc4cc5[nH]c([C@H]6CCCN6C)cc5cn4)cc32)cccc1N1CCC(=O)NC1=O [Example 9, 1-{8-[3-(2,4-dioxo-1,3-diazinan-1-yl)-2-methylphenoxy]octyl}-3-methyl-N-{2-[(2R)-1-methylpyrrolidin-2-yl]-1H-pyrrolo[3,2-c]pyridin-6-yl}indazole-6-carboxamide]
C (Category C: 25%≤C<50% degradation) | C (Category C: 25%≤C<50% degradation) | C (Category C: 25%≤C<50% degradation) | Cc1c(OCCCCCCn2nc(C)c3ccc(C(=O)Nc4cc5[nH]c([C@H]6CCCN6C)cc5cn4)cc32)cccc1N1CCC(=O)NC1=O [Example 10, 1-{6-[3-(2,4-dioxo-1,3-diazinan-1-yl)-2-methylphenoxy]hexyl}-3-methyl-N-{2-[(2R)-1-methylpyrrolidin-2-yl]-1H-pyrrolo[3,2-c]pyridin-6-yl}indazole-6-carboxamide]
C (Category C: 25%≤C<50% degradation) | C (Category C: 25%≤C<50% degradation) | A (Category A: A≥75% degradation) | Cc1nn(CCCCN2CCN(c3ccc4c(c3)C(=O)N(C3CCC(=O)NC3=O)C4=O)CC2)c2cc(C(=O)Nc3cc4[nH]c([C@@H]5CCCN5C)cc4cn3)ccc12 (stereo partly drawn) [Example 20, 1-(4-{4-[2-(2,6-dioxopiperidin-3-yl)-1,3-dioxoisoindol-5-yl]piperazin-1-yl}butyl)-3-methyl-N-{2-[(2S)-1-methylpyrrolidin-2-yl]-1H-pyrrolo[3,2-c]pyridin-6-yl}indazole-6-carboxamide]
 | B (Category B: 50%≤B<75% degradation) | A (Category A: A≥75% degradation) | Cc1nn(CCOCCN2CCN(c3cc4c(cc3F)C(=O)N(C3CCC(=O)NC3=O)C4=O)CC2)c2cc(C(=O)Nc3cc4[nH]c([C@H]5CCCN5C)cc4cn3)ccc12 (stereo partly drawn) [Example 24, 1-(2-(2-(4-(2-(2,6-dioxopiperidin-3-yl)-6-fluoro-1,3-dioxoisoindolin-5-yl)piperazin-1-yl)ethoxy)ethyl)-3-methyl-N-(2-((R)-1-methylpyrrolidin-2-yl)-1H-pyrrolo[3,2-c]pyridin-6-yl)-1H-indazole-6-carboxamide]
 | C (Category C: 25%≤C<50% degradation) | C (Category C: 25%≤C<50% degradation) | Cc1nn(CCCC2CCN(c3ccc(C(=O)NC4CCC(=O)NC4=O)cc3F)CC2)c2cc(C(=O)Nc3cc4[nH]c([C@H]5CCCN5C)cc4cn3)ccc12 (stereo partly drawn) [Example 28, 1-(3-(1-(4-((2,6-dioxopiperidin-3-yl)carbamoyl)-2-fluorophenyl)piperidin-4-yl)propyl)-3-methyl-N-(2-((R)-1-methylpyrrolidin-2-yl)-1H-pyrrolo[3,2-c]pyridin-6-yl)-1H-indazole-6-carboxamide]
D (Category D: D<25% degradation) | B (Category B: 50%≤B<75% degradation) | A (Category A: A≥75% degradation) | Cc1nn(CCCCCC#Cc2cccc(C(=O)NC3CCC(=O)NC3=O)c2F)c2cc(C(=O)Nc3cc4[nH]c([C@H]5CCCN5C)cc4cn3)ccc12 (stereo partly drawn) [Example 34, 1-(7-(3-((2,6-dioxopiperidin-3-yl)carbamoyl)-2-fluorophenyl)hept-6-yn-1-yl)-3-methyl-N-(2-((R)-1-methylpyrrolidin-2-yl)-1H-pyrrolo[3,2-c]pyridin-6-yl)-1H-indazole-6-carboxamide]
